Patent publication US20040197321A1, “Composition and method to prevent or reduce diarrhea and steatorrhea in HIV patients” (priority 2002, published 2004)
“Also recorded” adds a separate entry of the source. Counter-ions that a name gives are not always drawn. Like-named read-outs stand apart in the source and are kept apart here.

Tests used:
[1] = target: T1, USP Reference Standard Pancrelipase (Sus scrofa, UniProt P00591); assay: Lipase assay (USP titrimetric): inhibition of pancrelipase at pH 9.0; format: biochemical
T1 sequence (P00591 1-450): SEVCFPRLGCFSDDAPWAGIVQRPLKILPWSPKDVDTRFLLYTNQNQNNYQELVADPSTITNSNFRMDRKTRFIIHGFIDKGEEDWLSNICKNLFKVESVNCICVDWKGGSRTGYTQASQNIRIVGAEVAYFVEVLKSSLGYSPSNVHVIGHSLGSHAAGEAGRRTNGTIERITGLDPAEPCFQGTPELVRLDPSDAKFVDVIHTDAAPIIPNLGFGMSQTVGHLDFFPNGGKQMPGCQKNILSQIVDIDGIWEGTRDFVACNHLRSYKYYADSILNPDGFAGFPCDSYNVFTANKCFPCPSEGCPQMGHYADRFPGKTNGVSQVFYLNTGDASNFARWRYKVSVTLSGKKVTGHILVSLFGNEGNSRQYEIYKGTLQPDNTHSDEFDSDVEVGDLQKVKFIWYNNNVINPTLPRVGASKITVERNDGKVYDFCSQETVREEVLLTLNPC
Procedure: The enzyme sources consisted of USP Reference Standard Pancrelipase, USP Reference Standard Trypsin, colipase (Sigma Chemical Co.), and enterokinase (ICN Biochemicals). Appropriate concentrations of enzyme reference standard were prepared in cold distilled water, as described in USP reference assay procedures. The Infectious Disease Clinic in Somerville, N.J. provided the HAART medications. Pure drugs could not be obtained so commercial drug preparations were used in the assays. […] Appropriate concentrations of HAART drug, drug cocktails, and excipients were prepared in distilled water and reagent-grade methanol (Aldrich, Milwaukee, Wis.) or DMSO (Aldrich, Milwaukee, Wis.).
One unit (U) of lipase activity is defined as the amount of enzyme that liberates one μequivalent of free fatty acid from triglycerides per minute at pH 9.0 and 37° C. Lipase activity (U/mg) was determined by a lipase specific titrimetric assay described in the United States Pharmacopeia (USP), Volume XXII. In brief, the substrate consists of 10% olive oil in acacia solution, 40-mg/mL sodium taurocholate, 0.075M calcium chloride, 0.05M Tris in 3.0M NaCl buffer solution (pH 7.5) and distilled water. The emulsified substrate is incubated at 37° C. and brought to pH 9.0 with 0.02N NaOH. At time zero, 1.0 mL of enzyme solution was added. A pH stat autotitrator was used to maintain pH 9.0 and the volume of 0.02 N NaOH dispensed per unit time was recorded for five (5) minutes. From the initial slope of this plot, lipase activity was calculated using the following equation:
U/mg=slope (mL of NaOH dispensed/min)×N of NaOH×1000 /mg of enzyme assayed
HAART drug solutions were mixed with the substrate prior to incubation and addition of enzyme.

[2] = target: T2, pancrelipase (Sus scrofa, UniProt P00591); assay: Pancrelipase reactivation by colipase; format: biochemical; conditions: for % Lipase Activity with Colipase: colipase 5 μg/mL
T2 construct: Sigma Chemical Co. (colipase)
T2 sequence (P00591 1-450): T1 sequence (P00591 1-450)
Procedure: Junge et al., described the procedure for the reactivation of lipase by colipase. In brief, the above lipase assay procedure was used with the following variation: colipase solution replaced the distilled water so the concentration of colipase in the final reaction mixture was 5 μg/mL.

[3] = target: T3, USP Reference Standard Trypsin (Bos taurus, UniProt P00760); assay: Trypsin assay (spectrophotometric); format: biochemical; conditions: NRTI; drug 2.1*10^-4M (Drug Tested 44-141 μg/mL); trypsin 7.6 μg/mL; 25° C.
T3 sequence (P00760 24-246): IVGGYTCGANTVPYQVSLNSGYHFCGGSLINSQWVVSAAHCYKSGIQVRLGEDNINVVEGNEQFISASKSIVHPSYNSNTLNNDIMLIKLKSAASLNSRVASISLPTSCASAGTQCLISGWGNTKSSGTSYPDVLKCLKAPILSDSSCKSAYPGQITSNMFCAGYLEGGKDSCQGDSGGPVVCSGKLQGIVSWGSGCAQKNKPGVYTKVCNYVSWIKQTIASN
Procedure: Appropriate concentrations of enzyme reference standard were prepared in cold distilled water, as described in USP reference assay procedures. The Infectious Disease Clinic in Somerville, N.J. provided the HAART medications. Pure drugs could not be obtained so commercial drug preparations were used in the assays. […] Appropriate concentrations of HAART drug, drug cocktails, and excipients were prepared in distilled water and reagent-grade methanol (Aldrich, Milwaukee, Wis.) or DMSO (Aldrich, Milwaukee, Wis.).

[4] = system: HIV patients; conditions: Kakuda et al. 1998; cited from earlier work
[5] = system: pancrelipase; assay: Recovery of pancrelipase activity after inhibition, by addition of excess lipase; format: biochemical
Procedure: The above procedure was used to monitor pancrelipase activity with the exception that drug was not preincubated with the substrate. At time zero 1.0 mL of pancrelipase was added to initiate the reaction. At five (5) minutes, 1.0 mL of HAART drug solution was added to the reaction mixture to cause inhibition of lipase activity. At twelve (12) minutes an additional 1.0 mL of pancrelipase was added to the reaction mixture to overcome HAART inhibition. The reaction was monitored for twenty (20) minutes.

[6] = pH 9.0, read-out: IC50 for inhibitors of pancrelipase (converted)

CC(C)(C)NC(=O)[C@@H]1C[C@@H]2CCCC[C@@H]2CN1C[C@@H](O)[C@H](Cc1ccccc1)NC(=O)[C@H](CC(N)=O)NC(=O)c1ccc2ccccc2n1 [FORTOVASE ®, Saquinavir]
IC50 ([1]; IC50 for inhibitors of pancrelipase, pH 9.0): 3230 µM

CCCCCCCCCCC[C@@H](C[C@@H]1OC(=O)[C@H]1CCCCCC)OC(=O)[C@H](CC(C)C)NC=O [ORLISTAT, Orlistat, reference compound]
effect of added colipase on the inhibition of pancrelipase (in words) [2]: no effect | % Lipase Activity No Colipase ([2]; Drug Conc. 0.002 mg/mL): 37% | % Lipase Activity with Colipase ([2]; Drug Conc. 0.002 mg/mL): 29%

Cc1c(O)cccc1C(=O)N[C@@H](CSc1ccccc1)[C@H](O)CN1C[C@H]2CCCC[C@H]2C[C@H]1C(=O)NC(C)(C)C [VIRACEPT ®, Nelfinavir mesylate]
IC50 [1, 6]: 780 µM

Nc1ccn([C@H]2CC[C@@H](CO)O2)c(=O)n1 [Zalcitabine USP Ref. STND, 2′,3′-Dideoxycytidine]
Inhibition of Tryspin [3]: 0%

Cc1c(O)cccc1C(=O)N[C@@H](CSc1ccccc1)[C@H](O)CN1C[C@H]2CCCC[C@H]2C[C@H]1C(=O)NC(C)(C)C [nelfinavir, 2-[2′-hydroxy-3′-phenylthiomethyl-4′-aza-5′-oxo-5′-(2″-methyl-3″-hydroxyphenyl)pentyl]decahydroisoquinoline-3-N-t-butyl-carboxamide]
HIV patients who experience diarrhea [4]: 12-20%

D-α-tocopheryl polyethylene glycol 1000 succinate [TPGS]
effect of added colipase on the inhibition of pancrelipase (in words) [2]: reversed; also recorded: restored pancrelipase activity | % Lipase Activity No Colipase ([2]; Drug Conc. 10.0 mg/mL): 21% | % Lipase Activity with Colipase ([2]; Drug Conc. 10.0 mg/mL): 79% | inhibition of pancrelipase (in words) [1]: significantly inhibited; also recorded: significant inhibition | IC50 for inhibitors of pancrelipase ([1]; pH 9.0): 275 µg/mL | % Inhibition of Pancrelipase ([1]; pH 9.0, Wt % Excipient in Source Used 0.2): 6% | % Inhibition of Pancrelipase ([1]; pH 9.0, Wt % Excipient in Source Used 0.5): 43% | % Inhibition of Pancrelipase ([1]; pH 9.0, Wt % Excipient in Source Used 1): 79% | % Inhibition of Pancrelipase ([1]; pH 9.0, Wt % Excipient in Source Used 2): 93% | % Inhibition of Pancrelipase ([1]; pH 9.0, Wt % Excipient in Source Used 4): 95% | % Inhibition of Pancrelipase ([1]; pH 9.0, Wt % Excipient in Source Used 20): 96% | IC50 [1, 6]: 182 µM | effect of addition of excess lipase on the inhibition of pancrelipase (in words) [5]: can be overcome | % Reactivation of Pancrelipase ([5]; after addition of excess lipase (additional 1.0 mL pancrelipase at 12 minutes)): 98% | % Pancrelipase Activity ([5]; drug inhibited, before addition of excess lipase): 55%

Vitamin E
% Inhibition of Pancrelipase ([1]; pH 9.0, Wt % Excipient in Source Used 50): 20%
